According to patent US10933064B2, “Crystalline forms of 5-bromo-2,6-di(1H-pyrazol-1-yl)pyrimidin-4-amine and new salts” (Novartis AG, priority 2017, dated 2021):
≈ marks a conversion by molar mass, not a printed value.

Tests used:
[1] = Stability when blended with excipients; assay type: physicochemical; conditions: four excipients (gelatin, HPMC, wet granulation mixture, dry blended mixture), 50° C./75% RH
[2] = Hygroscopicity, water sorption-desorption isotherm (DVS); assay type: physicochemical
Excerpt: Crystalline form F is non-hygroscopic.

[3] = Intrinsic dissolution rate; assay type: physicochemical
[4] = Solubility in aqueous buffers and bio-relevant media; conditions: the salt dissociates
[5] = Thermal stability of the crystalline form on heating and cooling (XRPD); assay type: physicochemical; conditions: heating to 220° C. (melt) then cooling to 30° C.
[6] = Physical stability on compression (XRPD); assay type: physicochemical; conditions: 5 minutes at 0.5 ton, 0.8 cm diameter disc
Method: The crystallinity of form F was evaluated by XRPD after compression for 5 minutes at 0.5 ton with 0.8 cm diameter disc.

[7] = Granulation simulation experiments (XRPD, DSC); assay type: physicochemical; conditions: ground at 25° C.
Method: The physical stability of crystalline form F was also evaluated in granulation simulation experiments. In these experiments granulating solvent was added dropwise to the crystalline form F until the solid is wetted sufficiently. The mixture was then ground in a mortar/pestle at room temperature (25° C. for 2-3 minutes) between each addition. The crystallinity of the material (post-grinding) was re-evaluated by XRPD and DSC.

[8] = Phase change on exposure to humidity; assay type: physicochemical
[9] = 1 week
[10] = 1 week, 0.1 %, pH 1.2
[11] = physchem; conditions: aqueous buffer

degradation when blended with excipients [1]	hygroscopicity ([2]; relative humidity above 70%)	intrinsic dissolution ([3]; 0.01N HCl pH=2) [mg/cm^2/min]	intrinsic dissolution ([3]; acetate buffer pH 4.7) [mg/cm^2/min]	intrinsic dissolution ([3]; phosphate buffer pH 6.8) [mg/cm^2/min]	crystalline form after heating and cooling [5]	form change after compression [6]	form change after granulation simulation ([7]; ethanol as granulation solvent)	form change after granulation simulation ([7]; water as granulation solvent)	hygroscopicity ([2]; DVS, 25° C.)	moisture absorbed ([2]; DVS, up to 90% relative humidity, 25° C.)	phase change on exposure to humidity [8]	intrinsic dissolution ([3]; 0.01N HCl pH=2, listed as form F) [mg/cm^2/min]	intrinsic dissolution ([3]; acetate buffer pH 4.7, listed as form F) [mg/cm^2/min]	intrinsic dissolution ([3]; phosphate buffer pH 6.8, listed as form F) [mg/cm^2/min]	degradation in bulk [9]	degradation in buffer solution [10] [%]	degradation in buffer solutions [10]	solubility [11] [mg/mL]	Compound	solubility compared with free form F [4]
about 1%	very hygroscopic	0.0592	0.0264	0.0277															Nc1nc(-n2cccn2)nc(-n2cccn2)c1Br [Form C, 5-bromo-2,6-di(1H-pyrazol-1-yl)pyrimidin-4-amine]	does not show any better solubility than the free form F
					remains unchanged	no form change	no form change	no form change	non-hygroscopic	less than 0.2%	little to no phase change	0.0115	0.0085	0.0084	less than 1%	1	less than 0.5%	~0.1 (≈ 327 µM)	Nc1nc(-n2cccn2)nc(-n2cccn2)c1Br [Form F, 5-bromo-2,6-di(1H-pyrazol-1-yl)pyrimidin-4-amine]	
